Series [1] deals with SCC-4 cells (human oral cancer cells). The experiment in a line: Oral cancer cell growth inhibitory action using SCC-4 cells (Cell counting kit-8). It counts as cell-based. To be noted: read-out: Cell growth inhibition ability (IC50). Here is the method:
For culturing of the SCC-4 cells, a DMEM/F-12 (1:1) culture medium (manufactured by GIBCO) containing 400 ng/mL hydrocortisone (manufactured by Sigma-Aldrich Japan), 1% antibiotic-antimycotic (manufactured by GIBCO), and 10% FBS (Fetal Bovine Serum, manufactured by ATCC) was used. For the test, a collagen I coat 96-well plate for cell culture (manufactured by Japan BD) was used, and SCC-4 cells whose number of cells was adjusted to be 5×10^5 cells/mL were seeded with 100 μL/well. The cells were cultured under the conditions of 37° C. and 5% CO2 for 24 hours, and were used for the test in a confluent state of 80% or higher.
With respect to the sample preparation, each compound was dissolved with DMSO, and then prepared in such a manner as to be 0.63 mM, 1.25 mM, 2.5 mM, 5 mM, and 10 mM. The samples were added in such a manner that the final concentration in the SCC-4 cell culture solution was 6.3 μM, 12.5 μM, 25 μM, 50 μM, and 100 μM, and then the test was started. The sample to which an equivalent amount of only DMSO as the solvent was added was used as a negative control.
The number of viable cells was quantified by an MTT method using a “Cell counting kit-8” in the same manner as in Example 3, and the concentration IC50 at which the cell growth is inhibited by 50% was calculated.
On the technique in general: Tetrazolium dyes change colour on reduction, which living cells bring about.

Series [2] is described as follows: DPPH radical elimination method (antioxidation). To be noted: for IC50: DPPH radical, 20 minutes, absorbance 520 nm, read-out: Radical capturing ability (IC50); for Antioxidation activity compared with resveratrol: DPPH, relative to resveratrol. Here is the method:
A test of the antioxidation effect of the UHA4002 and 4003 was performed. The test was performed by adopting a DPPH (1,1-diphenyl-2-picrylhydrazyl) radical elimination method. A technique thereof is mentioned below.
About the main experiment method of the DPPH radical elimination method, the test was advanced with reference to a technique described in “Methods for Functional Food Analysis” (Published by Korin Publishing Co., Ltd., edited by Kazuki SHINOHARA, Tateo SUZUKI, and Shuichi KAMINOGAWA, 2000). […] The DPPH reaction liquid was adjusted in such a manner as to be 400 μM DPPH (Sigma-Aldrich “D9132”), 50 mM MES (2-morpholinoethanesulphonic acid, Dojindo Laboratories, “345-01625”), and 75% ethanol. The reaction was performed in a 96-well plate (As One, “1-6776-03”), and 100 μL of the samples and 100 μL of the DPPH reaction liquid were placed, and then mixed. The mixture was allowed to stand still in a shading state for 20 minutes, and then each absorbance at 520 nm was measured with a plate reader.
The IC50 refers to a concentration of each sample which is considered to have an ability of eliminating 50% DPPH radical.
In general terms: DPPH is a stable violet radical that fades when it is reduced.

Series [3] in a line: Physicochemical properties: solubility in solvents.
Series [4] relates to HL-60 cells (human myeloid leukemia cells). The experiment in a line: Cancer cell growth inhibitory action using HL-60 cells (Cell counting kit-8). It counts as cell-based. To be noted: for IC50: HL-60 cells, 24 hours, read-out: Cell growth inhibition ability (IC50); for Effect of inhibiting the growth of the HL-60 cells compared with resveratrol and E-viniferin: relative to resveratrol and ε-viniferin. As for the experimental part: Next, in order to see the effect of each compound to cancer cells, the cancer cell growth inhibitory action using HL-60 cells (human myeloid leukemia cells) was tested.
As culturing of cells, one in which 4 mM glutamine (L-glutamine, Sigma-Aldrich, “G8540-100G”) and 10% FBS (fetal bovine serum, Biological Industries, “04-001-1A”) were added to a high nutrient medium […] (Sigma-Aldrich, “R0883”) was used as a culture solution, and then subculture was performed. For a test, a 96-well plate for cell culture (Corning, “3595”) was used. The number of cells was adjusted on the test day in such a manner that the number of the HL-60 cells was 5×10^5 cell/mL, and then seeded in the 96-well plate with 100 μL/well.
For the preparation of the samples, each compound was dissolved with DMSO (dimethylsulfoxide, Wako Pure Chemical Industries, “046-21981”), and then the final concentration in the culture solution of the HL-60 cells of the samples was adjusted to be 10 μM, 30 μM, 100 μM, and 300 μM, respectively, and then the test was started.
For the detection of the cell growth inhibitory effect, the detection was performed by a MTT method using “Cell counting kit-8” (Dojin Chemical Laboratory, “347-07621”). More specifically, 24 hours after starting the test, 10 μL of the detection liquid of the cell counting kit-8 was added to each well, and then sufficiently stirred. Thereafter, a shading reaction was performed, the absorbance at 450 nm was measured using a plate reader (Biorad Laboratories, “BIO-RAD Model 680”), and then the obtained data were treated. The cell viability is a value obtained by calculation under the conditions where the number of survival cells of the cells treated with the culture solution to which DMSO was added was 100% and the number of survival cells of the cells under the concentration of each compound was defined as a relative value. From the relationship between each sample concentration and the cell viability, the concentration IC50 (50% inhibitory concentration) which inhibits the cell growth by 50% was calculated.

The subject of series [5] is Bacillus subtilis (NBRC 3134). The experiment in a line: Antibacterial paper disc method. It counts as cell-based. To be noted: 24 hours, read-out: Diameter of inhibition zone; for zone of inhibition at 1000 µM: NBRC3134, added concentration 1 mM; for zone of inhibition at 5000 µM: NBRC3134, added concentration 5 mM; for zone of inhibition at 10000 µM: NBRC3134, added concentration 10 mM. Here is the method: An assay was performed by a paper disc method for the purpose of confirming the antibacterial action of the UHA4002 and 4003. The paper disc method is a known technique capable of easily investigating the antibacterial activity of a test substance by creating each inhibition zone of the test substance. The assay was performed using, as a fungus body, Bacillus subtilis (NBRC 3134) purchased from National Institute of Technology and Evaluation Biological Resource Center NBRC. For the raise of a fungus body and a culture method thereof, No. 702 which is a culture solution specified by NBRC was adjusted and used. The culture was performed at 37° C. The experiment method of the paper disc method ((Agar) culture solution, Culture method, Test preparation, Test method) was performed in accordance with a BSAC standardization disc sensitivity test method (8th edition). […] As a positive control, chloramphenicol (Wako Pure Chemical Industries, “036-10571”) of an antibacterial component to be used as a pharmaceutical agent was dissolved in DMSO and adjusted and, as a negative control, DMSO was used. The samples thus adjusted were immersed in the paper disc, disposed on an agar medium in which bacillus subtilis was seeded, cultured, and then, after 24 hours later, the measurement of the inhibition zone was performed. The reliability of this example is confirmed from the size of the inhibition zone by chloramphenicol.

Series [6] concerns the target rat intestine derived lipase. The experiment in a line: Lipase inhibitory action test (Lipase kit S). To be noted: 30° C., 10 minutes reaction. Format: biochemical. As for the experimental part:
As lipase, one obtained by suspending 100 mg of rat derived intestine acetone powder (manufactured by Sigma-Aldrich Japan) in 1 mL of 100 mM citric acid buffer (pH 6.0), stirring the same at 4° C. for 1 hour, centrifuging the same (at 15000 rpm for 45 minutes at 4° C.) to obtain a supernatant, and then diluting the supernatant by 1500 times was used as a lipase solution.
With respect to the sample preparation, those obtained by dissolving each compound with DMSO, and then preparing in such a manner as to be 0.1 mM, 0.5 mM, 1 mM, 2 mM, and 4 mM were used.
For measuring the activity, a “Lipase kit S” (Trade name, manufactured by Dainippon Pharmaceutical Co., Ltd.) was used. First, in accordance with a preparation method described in the catalog of the Lipase kit S, a color developing liquid was prepared. Reaction liquids in which 70 μL, of the color developing liquid, 2 μL of an esterase inhibitor, 10 μL of the lipase solution, and 10 μL of the samples (Final concentration: 10 μM, 50 μM, 100 μM, 200 μM, 400 μM, and 1000 μM) were mixed were prepared, preincubated at 30° C. for 5 minutes, and then 8 μl of a substrate solution described in the catalog was added. Then, a reaction was started. After reacting for 10 minutes, 150 μL of a reaction stop liquid prepared in accordance with the preparation method described in the catalog of the Lipase kit S was added to stop the reaction. […]

Like-named read-outs stand apart in the source and are kept apart here.

Usually IC50 stands for the concentration at which inhibition is half-maximal. For orientation: zone of inhibition means the extent of the growth-free halo in a diffusion test. For the compound `Oc1ccc(/C=C\c2cc(O)c3c(c2)-c2c(O)cc(O)cc2CC3c2ccc(O)cc2)cc1` (single isomer, unassigned) [UHA 4003], the IC50 in series [1] stood at 32.4 µM; in series [2], 50 µM; in series [4] (Homo sapiens), 30 µM. In addition, the “Antioxidation activity compared with resveratrol” value in series [2] is “as high as twice”. Moreover, the Solubility result in series [3] (Chloroform) is reported as “Poorly soluble”; in series [3] (DMSO), “Soluble”; in series [3] (Ethanol) it was “Soluble”; in series [3] (Ethyl acetate) it was “Poorly soluble”; in series [3] (Methanol) it was “Soluble”; in series [3] (Water) it was “Poorly soluble”. Further, the “Effect of inhibiting the growth of the HL-60 cells compared with resveratrol and E-viniferin” value in series [4] is on record as “twice or higher”. Also, in series [5], the zone of inhibition at 1000 µM turned out to be 8.3 mm. In addition, the zone of inhibition at 5000 µM in series [5] was 10.5 mm. Moreover, in series [5], the zone of inhibition at 10000 µM is 11.8 mm.

With `Oc1ccc(/C=C/c2cc(O)cc(O)c2)cc1` [Resveratrol, trans-resveratrol, reference compound], the IC50 in series [1] is above 100 µM; in series [4] (Homo sapiens), 80 µM; in series [6] it was above 1000 µM. The zone of inhibition at 1000 µM in series [5] was 0 mm. The zone of inhibition at 5000 µM in series [5] came out at 0 mm. Also, the zone of inhibition at 10000 µM in series [5] worked out at 0 mm. Further, in series [5] (NBRC3134, added concentration 50 mM), the zone of inhibition at 50000 µM is 10 mm.

Consider `Oc1ccc(/C=C/c2cc(O)cc3c2[C@@H](c2cc(O)cc(O)c2)[C@H](c2ccc(O)cc2)O3)cc1` [ε-viniferin, reference compound], for which the IC50 in series [4] was 60 µM.

Turning to `Oc1ccc(/C=C/c2cc(O)cc3c2C(c2ccc(O)cc2)Cc2cc(O)cc(O)c2-3)cc1` (single isomer, unassigned) [UHA 4002], the IC50 in series [1] came out at 52.1 µM; in series [2], 50 µM; in series [4] (Homo sapiens), 30 µM; in series [6], 311 µM. For the same compound, in series [2], the “Antioxidation activity compared with resveratrol” value is listed as “as high as twice”. In addition, the Solubility result in series [3] (Chloroform) was “Poorly soluble”; in series [3] (DMSO) it was “Soluble”; in series [3] (Ethanol), “Soluble”; in series [3] (Ethyl acetate), “Poorly soluble”; in series [3] (Methanol) it was “Soluble”; in series [3] (Water), “Poorly soluble”. Further, in series [4], the “Effect of inhibiting the growth of the HL-60 cells compared with resveratrol and E-viniferin” value is recorded as “twice or higher”. Further, the zone of inhibition at 1000 µM in series [5] came to 8.5 mm. Also, the zone of inhibition at 5000 µM in series [5] turned out to be 11 mm. The zone of inhibition at 10000 µM in series [5] stood at 13.3 mm.

The record behind these values is patent US9051245B2 (UHA MIKAKUTO CO., LTD., priority 2011, dated 2015).
